# Patent US8192962B2, “Processes for detecting toxic substances” (Daikin Industries, Ltd., priority 2001, dated 2012)
# Tested on: Energy system protein genes
# Test: DNA chip mRNA expression in yeast, energy system protein genes (Table 4)
# Type: cell-based, Saccharomyces cerevisiae S288C
# Summary of the method: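 In this screen, yeast in logarithmic growth are challenged for two hours with a toxic substance at a non-lethal inhibitory concentration. Their mRNA, converted to Cy3- or Cy5-labeled cDNA, hybridizes at 65° C. to a chip spanning every yeast gene, and expression is expressed as a ratio to untreated cells.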
structure (smiles),measurement,setting,value
"C=CC=O [(14), acrolein]",The level of expressed mRNA in the presence of chemical substance/The level of expressed mRNA in the absence of chemical substance,yeast gene YJR048W,2.5
same,The level of expressed mRNA in the presence of chemical substance/The level of expressed mRNA in the absence of chemical substance,"yeast gene YJR121W, cells incubated two hours with the chemical substance",0.7
same,The level of expressed mRNA in the presence of chemical substance/The level of expressed mRNA in the absence of chemical substance,yeast gene YJR155W,9.4
same,The level of expressed mRNA in the presence of chemical substance/The level of expressed mRNA in the absence of chemical substance,"yeast gene YKL016C, cells incubated two hours with the chemical substance",1.6
same,The level of expressed mRNA in the presence of chemical substance/The level of expressed mRNA in the absence of chemical substance,"yeast gene YKL060C, cells incubated two hours with the chemical substance",0.8
same,The level of expressed mRNA in the presence of chemical substance/The level of expressed mRNA in the absence of chemical substance,"yeast gene YKL141W, cells incubated two hours with the chemical substance",1.4
same,The level of expressed mRNA in the presence of chemical substance/The level of expressed mRNA in the absence of chemical substance,"yeast gene YKL148C, cells incubated two hours with the chemical substance",0.8
same,The level of expressed mRNA in the presence of chemical substance/The level of expressed mRNA in the absence of chemical substance,yeast gene YKL150W,1.4
same,The level of expressed mRNA in the presence of chemical substance/The level of expressed mRNA in the absence of chemical substance,"yeast gene YKR009C, cells incubated two hours with the chemical substance",1.0
same,The level of expressed mRNA in the presence of chemical substance/The level of expressed mRNA in the absence of chemical substance,"yeast gene YKR058W, cells incubated two hours with the chemical substance, 25° C., YPD medium",1.3
same,The level of expressed mRNA in the presence of chemical substance/The level of expressed mRNA in the absence of chemical substance,yeast gene YKR097W,2.1
same,The level of expressed mRNA in the presence of chemical substance/The level of expressed mRNA in the absence of chemical substance,"yeast gene YLL041C, cells incubated two hours with the chemical substance",1.2
same,The level of expressed mRNA in the presence of chemical substance/The level of expressed mRNA in the absence of chemical substance,"yeast gene YLR038C, cells incubated two hours with the chemical substance",1.6
same,The level of expressed mRNA in the presence of chemical substance/The level of expressed mRNA in the absence of chemical substance,"yeast gene YLR044C, cells incubated two hours with the chemical substance",0.5
same,The level of expressed mRNA in the presence of chemical substance/The level of expressed mRNA in the absence of chemical substance,"yeast gene YLR134W, cells incubated two hours with the chemical substance",0.6
same,The level of expressed mRNA in the presence of chemical substance/The level of expressed mRNA in the absence of chemical substance,"yeast gene YLR258W, cells incubated two hours with the chemical substance",1.2
same,The level of expressed mRNA in the presence of chemical substance/The level of expressed mRNA in the absence of chemical substance,"yeast gene YLR284C, cells incubated two hours with the chemical substance",1.3
same,The level of expressed mRNA in the presence of chemical substance/The level of expressed mRNA in the absence of chemical substance,"yeast gene YLR295C, cells incubated two hours with the chemical substance, 25° C., YPD medium",1.2
same,The level of expressed mRNA in the presence of chemical substance/The level of expressed mRNA in the absence of chemical substance,"yeast gene YLR304C, cells incubated two hours with the chemical substance",0.7
same,The level of expressed mRNA in the presence of chemical substance/The level of expressed mRNA in the absence of chemical substance,yeast gene YLR345W,1.5
same,The level of expressed mRNA in the presence of chemical substance/The level of expressed mRNA in the absence of chemical substance,"yeast gene YLR354C, cells incubated two hours with the chemical substance",0.9
same,The level of expressed mRNA in the presence of chemical substance/The level of expressed mRNA in the absence of chemical substance,"yeast gene YLR377C, cells incubated two hours with the chemical substance",2.9
same,The level of expressed mRNA in the presence of chemical substance/The level of expressed mRNA in the absence of chemical substance,"yeast gene YLR395C, cells incubated two hours with the chemical substance",1.7
same,The level of expressed mRNA in the presence of chemical substance/The level of expressed mRNA in the absence of chemical substance,yeast gene YML087C,2.1
same,The level of expressed mRNA in the presence of chemical substance/The level of expressed mRNA in the absence of chemical substance,"yeast gene YML120C, cells incubated two hours with the chemical substance",0.8
same,The level of expressed mRNA in the presence of chemical substance/The level of expressed mRNA in the absence of chemical substance,"yeast gene YML129C, cells incubated two hours with the chemical substance",1.4
same,The level of expressed mRNA in the presence of chemical substance/The level of expressed mRNA in the absence of chemical substance,"yeast gene YMR073C, cells incubated two hours with the chemical substance",2.0
same,The level of expressed mRNA in the presence of chemical substance/The level of expressed mRNA in the absence of chemical substance,yeast gene YMR118C,0.9
same,The level of expressed mRNA in the presence of chemical substance/The level of expressed mRNA in the absence of chemical substance,"yeast gene YMR205C, cells incubated two hours with the chemical substance",0.5
same,The level of expressed mRNA in the presence of chemical substance/The level of expressed mRNA in the absence of chemical substance,"yeast gene YMR261C, cells incubated two hours with the chemical substance",0.6
same,The level of expressed mRNA in the presence of chemical substance/The level of expressed mRNA in the absence of chemical substance,"yeast gene YMR267W, cells incubated two hours with the chemical substance, 25° C., YPD medium",1.0
same,The level of expressed mRNA in the presence of chemical substance/The level of expressed mRNA in the absence of chemical substance,"yeast gene YMR323W, cells incubated two hours with the chemical substance",1.2
same,The level of expressed mRNA in the presence of chemical substance/The level of expressed mRNA in the absence of chemical substance,yeast gene YNL071W,0.8
same,The level of expressed mRNA in the presence of chemical substance/The level of expressed mRNA in the absence of chemical substance,"yeast gene YNL202W, cells incubated two hours with the chemical substance",1.0
same,The level of expressed mRNA in the presence of chemical substance/The level of expressed mRNA in the absence of chemical substance,yeast gene YNL241C,1.1
same,The level of expressed mRNA in the presence of chemical substance/The level of expressed mRNA in the absence of chemical substance,yeast gene YNL331C,7.5
same,The level of expressed mRNA in the presence of chemical substance/The level of expressed mRNA in the absence of chemical substance,"yeast gene YOL086C, cells incubated two hours with the chemical substance",0.6
same,The level of expressed mRNA in the presence of chemical substance/The level of expressed mRNA in the absence of chemical substance,yeast gene YOL165C,9.1
same,The level of expressed mRNA in the presence of chemical substance/The level of expressed mRNA in the absence of chemical substance,"yeast gene YOR142W, cells incubated two hours with the chemical substance",0.8
same,The level of expressed mRNA in the presence of chemical substance/The level of expressed mRNA in the absence of chemical substance,"yeast gene YOR178C, cells incubated two hours with the chemical substance",1.0
same,The level of expressed mRNA in the presence of chemical substance/The level of expressed mRNA in the absence of chemical substance,"yeast gene YOR388C, cells incubated two hours with the chemical substance",1.3
same,The level of expressed mRNA in the presence of chemical substance/The level of expressed mRNA in the absence of chemical substance,"yeast gene YPL031C, cells incubated two hours with the chemical substance",0.9
same,The level of expressed mRNA in the presence of chemical substance/The level of expressed mRNA in the absence of chemical substance,"yeast gene YPL061W, cells incubated two hours with the chemical substance",0.6
same,The level of expressed mRNA in the presence of chemical substance/The level of expressed mRNA in the absence of chemical substance,yeast gene YPL088W,1.6
same,The level of expressed mRNA in the presence of chemical substance/The level of expressed mRNA in the absence of chemical substance,yeast gene YPL171C,9.3
same,The level of expressed mRNA in the presence of chemical substance/The level of expressed mRNA in the absence of chemical substance,yeast gene YPL240C,0.7
same,The level of expressed mRNA in the presence of chemical substance/The level of expressed mRNA in the absence of chemical substance,"yeast gene YPL262W, cells incubated two hours with the chemical substance",1.2
same,The level of expressed mRNA in the presence of chemical substance/The level of expressed mRNA in the absence of chemical substance,"yeast gene YPL275W, cells incubated two hours with the chemical substance",1.0
same,The level of expressed mRNA in the presence of chemical substance/The level of expressed mRNA in the absence of chemical substance,"yeast gene YPL276W, cells incubated two hours with the chemical substance",0.9
same,The level of expressed mRNA in the presence of chemical substance/The level of expressed mRNA in the absence of chemical substance,"yeast gene YPR048W, cells incubated two hours with the chemical substance",1.2
same,The level of expressed mRNA in the presence of chemical substance/The level of expressed mRNA in the absence of chemical substance,"yeast gene YPR184W, cells incubated two hours with the chemical substance",1.3
